For 19 compounds, IC50 results are on record in patent US9580416B2, “Inhibitors of Bruton's tyrosine kinase” (PHARMACYCLICS LLC, priority 2014, dated 2017).

Common to all, as to type: biochemical
The target of one experiment is Btk (Homo sapiens, UniProt Q06187). Kind of experiment: Btk kinase activity, TR-FRET assay. The procedure, abridged: (§1)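 Enzyme (Btk 0.5 nM; Lck 6 nM) reacted 1 h with inhibitor, ATP at Km and biotin-peptide substrate in pH 7.4 buffer, 10% DMSO. Phosphopeptide detected by Eu-p-Tyr100 antibody plus streptavidin-APC (665/615 nm). IC50 calculated from fitted Ki(app) via ATP/Km correction plus half total enzyme.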

Another experiment deals with T1, JAK3 (Homo sapiens, UniProt P52333).
T1 sequence (P52333 1-1124): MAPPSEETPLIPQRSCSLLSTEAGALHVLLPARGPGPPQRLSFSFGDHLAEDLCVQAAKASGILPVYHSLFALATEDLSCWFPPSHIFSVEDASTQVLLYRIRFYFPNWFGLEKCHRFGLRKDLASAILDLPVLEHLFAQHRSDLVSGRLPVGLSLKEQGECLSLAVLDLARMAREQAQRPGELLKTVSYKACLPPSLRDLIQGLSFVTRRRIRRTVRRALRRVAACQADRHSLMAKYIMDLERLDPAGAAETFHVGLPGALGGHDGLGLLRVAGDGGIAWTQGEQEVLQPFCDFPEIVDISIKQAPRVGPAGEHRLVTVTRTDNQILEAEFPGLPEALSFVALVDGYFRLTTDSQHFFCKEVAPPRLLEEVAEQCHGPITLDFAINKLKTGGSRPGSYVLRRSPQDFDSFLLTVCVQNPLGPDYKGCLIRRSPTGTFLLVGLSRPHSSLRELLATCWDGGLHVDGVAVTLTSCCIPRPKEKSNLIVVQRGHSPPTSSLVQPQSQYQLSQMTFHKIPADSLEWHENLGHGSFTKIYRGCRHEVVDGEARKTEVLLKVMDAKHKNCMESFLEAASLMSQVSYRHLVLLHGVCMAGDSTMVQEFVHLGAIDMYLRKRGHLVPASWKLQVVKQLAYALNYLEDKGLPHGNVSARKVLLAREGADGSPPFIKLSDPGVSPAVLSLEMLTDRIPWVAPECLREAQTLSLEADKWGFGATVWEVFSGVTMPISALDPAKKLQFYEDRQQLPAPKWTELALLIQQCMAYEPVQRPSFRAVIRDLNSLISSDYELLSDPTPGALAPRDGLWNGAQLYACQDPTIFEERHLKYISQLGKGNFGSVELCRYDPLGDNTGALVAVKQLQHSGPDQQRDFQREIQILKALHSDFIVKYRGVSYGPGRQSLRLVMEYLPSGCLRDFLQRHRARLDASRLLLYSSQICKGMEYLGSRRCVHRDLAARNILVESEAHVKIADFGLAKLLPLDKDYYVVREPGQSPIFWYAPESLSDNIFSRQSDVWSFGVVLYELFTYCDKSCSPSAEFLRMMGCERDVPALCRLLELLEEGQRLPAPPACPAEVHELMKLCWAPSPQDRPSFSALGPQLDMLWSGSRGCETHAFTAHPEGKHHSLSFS
Kind of experiment: Inhibition of a panel of kinases, in vitro HotSpot kinase assay: JAK3. The protocol: (§2) The degree of inhibition of a panel of kinases is determined using the in vitro HotSpot kinase assay (purified enzymes, ^33P-ATP, an appropriate substrate and 1 uM ATP).

Another experiment concerns the target EGFR (Homo sapiens, UniProt P00533). In words: Inhibition of a panel of kinases, in vitro HotSpot kinase assay: EGFR. The protocol:
as §2

The next experiment concerns the target Lck (Homo sapiens, UniProt P06239). Kind of experiment: Lck kinase activity, TR-FRET assay. In short, it runs like this: as §1
(In general: TR-FRET usually uses a lanthanide donor and a delayed reading to cut background.)

What is called IC50 is the concentration that gives 50% inhibition.

Like-named read-outs stand apart in the source and are kept apart here. Where only a bound is given, the exact number is not on record here.

Sequence of Lck (P06239 whole entry, species assumed): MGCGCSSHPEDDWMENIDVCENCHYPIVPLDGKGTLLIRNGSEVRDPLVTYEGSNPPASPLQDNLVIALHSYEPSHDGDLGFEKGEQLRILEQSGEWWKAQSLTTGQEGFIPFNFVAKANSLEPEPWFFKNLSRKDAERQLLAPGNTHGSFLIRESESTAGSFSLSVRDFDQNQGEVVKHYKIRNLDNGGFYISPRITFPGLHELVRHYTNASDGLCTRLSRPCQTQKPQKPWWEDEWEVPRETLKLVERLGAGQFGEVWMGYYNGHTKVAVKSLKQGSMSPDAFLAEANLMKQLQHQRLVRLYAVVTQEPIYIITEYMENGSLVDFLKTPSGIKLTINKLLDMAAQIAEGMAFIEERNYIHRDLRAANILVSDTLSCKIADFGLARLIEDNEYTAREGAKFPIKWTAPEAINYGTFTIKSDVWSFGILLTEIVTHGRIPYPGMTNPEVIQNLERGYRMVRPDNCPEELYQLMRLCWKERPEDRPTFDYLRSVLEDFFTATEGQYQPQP
Sequence of Btk (Q06187 whole entry): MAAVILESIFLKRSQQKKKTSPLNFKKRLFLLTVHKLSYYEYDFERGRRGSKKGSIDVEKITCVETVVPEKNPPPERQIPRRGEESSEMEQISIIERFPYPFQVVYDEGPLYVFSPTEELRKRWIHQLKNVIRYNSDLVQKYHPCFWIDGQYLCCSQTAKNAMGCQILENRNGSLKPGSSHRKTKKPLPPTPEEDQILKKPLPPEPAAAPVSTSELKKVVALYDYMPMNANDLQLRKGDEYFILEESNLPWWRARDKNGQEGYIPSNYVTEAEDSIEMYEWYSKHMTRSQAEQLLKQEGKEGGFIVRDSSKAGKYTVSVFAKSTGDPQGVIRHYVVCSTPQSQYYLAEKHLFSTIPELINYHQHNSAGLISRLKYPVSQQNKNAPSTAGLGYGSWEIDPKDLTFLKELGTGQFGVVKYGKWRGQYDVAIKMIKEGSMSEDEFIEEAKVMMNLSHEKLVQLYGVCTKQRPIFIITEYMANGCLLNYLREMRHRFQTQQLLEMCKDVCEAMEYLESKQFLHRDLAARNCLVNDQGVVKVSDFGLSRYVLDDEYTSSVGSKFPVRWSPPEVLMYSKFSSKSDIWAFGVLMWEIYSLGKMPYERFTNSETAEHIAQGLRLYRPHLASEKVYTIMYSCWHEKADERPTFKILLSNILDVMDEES
Sequence of EGFR (P00533 25-1210): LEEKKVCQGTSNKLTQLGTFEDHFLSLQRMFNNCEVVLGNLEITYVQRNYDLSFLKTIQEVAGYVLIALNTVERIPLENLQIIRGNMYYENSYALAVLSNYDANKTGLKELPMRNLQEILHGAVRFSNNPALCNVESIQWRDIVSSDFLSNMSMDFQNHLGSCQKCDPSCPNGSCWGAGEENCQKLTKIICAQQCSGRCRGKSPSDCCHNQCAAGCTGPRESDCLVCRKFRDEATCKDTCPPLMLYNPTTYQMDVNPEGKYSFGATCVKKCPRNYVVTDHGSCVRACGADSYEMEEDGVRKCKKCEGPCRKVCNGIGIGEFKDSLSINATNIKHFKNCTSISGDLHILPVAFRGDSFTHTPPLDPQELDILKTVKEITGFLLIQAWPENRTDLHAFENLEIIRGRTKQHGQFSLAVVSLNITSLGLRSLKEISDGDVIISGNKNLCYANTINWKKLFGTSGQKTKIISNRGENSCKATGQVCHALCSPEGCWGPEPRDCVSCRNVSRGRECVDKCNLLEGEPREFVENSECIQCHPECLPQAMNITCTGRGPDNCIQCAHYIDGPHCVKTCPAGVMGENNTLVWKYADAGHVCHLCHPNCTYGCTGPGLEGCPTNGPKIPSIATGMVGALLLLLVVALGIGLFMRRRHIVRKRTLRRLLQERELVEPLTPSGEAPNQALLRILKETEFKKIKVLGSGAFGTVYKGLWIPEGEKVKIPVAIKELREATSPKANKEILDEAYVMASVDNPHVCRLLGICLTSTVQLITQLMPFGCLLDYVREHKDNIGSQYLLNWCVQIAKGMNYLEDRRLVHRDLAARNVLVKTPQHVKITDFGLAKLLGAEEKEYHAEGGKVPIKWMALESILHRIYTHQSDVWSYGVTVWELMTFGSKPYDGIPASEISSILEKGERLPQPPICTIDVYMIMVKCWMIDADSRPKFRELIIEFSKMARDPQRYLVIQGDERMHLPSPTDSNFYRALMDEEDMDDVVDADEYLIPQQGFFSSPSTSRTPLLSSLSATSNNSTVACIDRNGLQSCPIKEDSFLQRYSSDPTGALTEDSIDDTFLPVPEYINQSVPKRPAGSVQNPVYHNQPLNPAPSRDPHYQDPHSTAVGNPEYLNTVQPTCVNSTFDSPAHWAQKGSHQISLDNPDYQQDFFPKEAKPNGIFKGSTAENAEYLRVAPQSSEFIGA

Turning to `CC#CC(=O)N1CC[C@@H](Nc2n[nH]c3nccc(Oc4ccc(C(=O)Nc5ncc(C)s5)cc4)c23)C1` [compound 181], the IC50 was less than 100 nM on Btk (read-out: Btk (IC50)), greater than 10000 nM against JAK3, 1000 to 10000 nM on EGFR and 1000 to 10000 nM at Lck (read-out: LCK (IC50)).
As to `CC#CC(=O)N1CCC[C@@H](Nc2n[nH]c3nccc(Oc4ccc(C(=O)Nc5ncc(CC)s5)cc4)c23)C1` [compound 177], the IC50 on Btk (read-out: Btk (IC50)) was less than 100 nM; at JAK3, 1000 to 10000 nM; on EGFR, 1000 to 10000 nM; at Lck (read-out: LCK (IC50)), 100 to 1000 nM.
Take `CN(C/C=C/C(=O)N1CCC[C@@H](Nc2n[nH]c3nccc(Oc4ccc(C(=O)Nc5nc6ccccc6s5)cc4)c23)C1)C1CC1` [compound 167]: the IC50 on Btk (read-out: Btk (IC50)) was less than 100 nM; on JAK3 it was 1000 to 10000 nM; against EGFR, 1000 to 10000 nM; at Lck (read-out: LCK (IC50)), 100 to 1000 nM.
As for `Cc1cc(Oc2ccnc3[nH]nc(N[C@@H]4CCCN(C(=O)/C=C/CN(C)C5CC5)C4)c23)ccc1Oc1ccccc1` [compound 156], the IC50 at Btk (read-out: Btk (IC50)) was less than 100 nM; against JAK3, greater than 10000 nM; against EGFR, 100 to 1000 nM; at Lck (read-out: LCK (IC50)), 100 to 1000 nM.
As to `Cc1cc(NC(=O)c2cccc(Oc3ccnc4[nH]nc(N[C@@H]5CCCN(C(=O)C#CCO)C5)c34)c2)ccc1C(C)C` [compound 251, (R)-3-(3-(1-(4-hydroxybut-2-ynoyl)piperidin-3-ylamino)-1H-pyrazolo[3,4-b]pyridin-4-yloxy)-N-(4-isopropyl-3-methylphenyl)benzamide], the IC50 at Btk (read-out: Btk (IC50)) was less than 100 nM; on JAK3 it was less than 100 nM; against EGFR it was less than 100 nM; on Lck (read-out: LCK (IC50)), 100 to 1000 nM.
For the compound `CN(C)C/C=C/C(=O)N(C)[C@H]1CC[C@@H](Nc2n[nH]c3nccc(Oc4cccc(Oc5ccccc5)c4)c23)CC1` [compound 21, (2E)-4-(dimethylamino)-N-methyl-N-[(1s,4s)-4-{[4-(3-phenoxyphenoxy)-1H-pyrazolo[3,4-b]pyridin-3-yl]amino}cyclohexyl]but-2-enamide], the IC50 at Btk (read-out: Btk (IC50)) was less than 100 nM; on JAK3 it was 100 to 1000 nM; on EGFR, 100 to 1000 nM; at Lck (read-out: LCK (IC50)), 100 to 1000 nM.
Consider `CN(C/C=C/C(=O)N1CCC[C@@H](Nc2n[nH]c3nccc(Oc4ccc(Oc5ccccc5)cc4)c23)C1)C1CC1` [compound 8, (2E)-4-[cyclopropyl(methyl)amino]-1-[(3R)-3-{[4-(4-phenoxyphenoxy)-1H-pyrazolo[3,4-b]pyridin-3-yl]amino}piperidin-1-yl]but-2-en-1-one], for which the IC50 at Btk (read-out: Btk (IC50)) was less than 100 nM; against JAK3, greater than 10000 nM; at EGFR it was 100 to 1000 nM; on Lck (read-out: LCK (IC50)) it was less than 100 nM.
`O=C(Nc1ccccn1)c1ccc(Oc2ccnc3[nH]nc(N[C@@H]4CCCN(C(=O)C5CC5)C4)c23)cc1` [compound 232, 4-[(3-{[(3R)-1-cyclopropanecarbonylpiperidin-3-yl]amino}-1H-pyrazolo[3,4-b]pyridin-4-yl)oxy]-N-(pyridin-2-yl)benzamide]: the IC50 was less than 100 nM at Btk (read-out: Btk (IC50)), greater than 10000 nM on JAK3, 1000 to 10000 nM against EGFR and greater than 10000 nM at Lck (read-out: LCK (IC50)).
For the compound `Cc1ccnc(NC(=O)c2ccc(Oc3ccnc4[nH]nc(N[C@@H]5CCCN(C(=O)C6(C)CC6)C5)c34)cc2)c1` [compound 120, 4-[(3-{[(3R)-1-(1-methylcyclopropanecarbonyl)piperidin-3-yl]amino}-1H-pyrazolo[3,4-b]pyridin-4-yl)oxy]-N-(4-methylpyridin-2-yl)benzamide], the IC50 was less than 100 nM at Btk (read-out: Btk (IC50)), greater than 10000 nM on JAK3, greater than 10000 nM on EGFR and 100 to 1000 nM at Lck (read-out: LCK (IC50)).
As for `CN(C)CCCC(=O)N1CCC[C@@H](Nc2n[nH]c3nccc(Oc4ccc(C(=O)Nc5nc6ccccc6s5)cc4)c23)C1` [compound 172], the IC50 is less than 100 nM on Btk (read-out: Btk (IC50)), less than 100 nM against JAK3, 100 to 1000 nM against EGFR and less than 100 nM at Lck (read-out: LCK (IC50)).
As to `CN(C)CCCC(=O)N[C@@H]1CCCN(c2n[nH]c3nccc(Oc4ccc(C(=O)Nc5cc(C(F)(F)F)ccn5)cc4)c23)C1` [compound 230, 4-({3-[(3R)-3-[4-(dimethylamino)butanamido]piperidin-1-yl]-1H-pyrazolo[3,4-b]pyridin-4-yl}oxy)-N-[4-(trifluoromethyl)pyridin-2-yl]benzamide], the IC50 is 100 to 1000 nM on Btk (read-out: Btk (IC50)), greater than 10000 nM against JAK3, greater than 10000 nM on EGFR and greater than 10000 nM on Lck (read-out: LCK (IC50)).
As to `Cc1ccnc(NC(=O)c2ccc(Oc3ccnc4[nH]nc(N[C@@H]5CCCN(C(=O)Oc6ccccc6)C5)c34)cc2)c1` [compound 93, phenyl (3R)-3-[(4-{4-[(4-methylpyridin-2-yl)carbamoyl]phenoxy}-1H-pyrazolo[3,4-b]pyridin-3-yl)amino]piperidine-1-carboxylate], the IC50 was 100 to 1000 nM on Btk, greater than 10000 nM against JAK3, greater than 10000 nM against EGFR and 1000 to 10000 nM at Lck.
On to `CCNC(=O)N1CCC[C@@H](Nc2n[nH]c3nccc(Oc4ccc(C(=O)Nc5nc6ccccc6s5)cc4)c23)C1` [compound 176], for which the IC50 at Btk (read-out: Btk (IC50)) is less than 100 nM; against JAK3, 100 to 1000 nM; at EGFR, greater than 10000 nM; at Lck (read-out: LCK (IC50)), 100 to 1000 nM.
Turning to `Cc1ccnc(NC(=O)c2ccc(Oc3ccnc4[nH]nc(N[C@@H]5CCCN(C(=O)C6CCCC6)C5)c34)cc2)c1` [compound 107, 4-[(3-{[(3R)-1-cyclopentanecarbonylpiperidin-3-yl]amino}-1H-pyrazolo[3,4-b]pyridin-4-yl)oxy]-N-(4-methylpyridin-2-yl)benzamide], the IC50 was less than 100 nM at Btk (read-out: Btk (IC50)), greater than 10000 nM against JAK3, greater than 10000 nM against EGFR and 1000 to 10000 nM at Lck (read-out: LCK (IC50)).
Consider `Cc1ccnc(NC(=O)c2ccc(Oc3ccnc4[nH]nc(N[C@@H]5CCCN(C(=O)C(N)=O)C5)c34)cc2)c1` [compound 270, (R)-4-(3-(1-(2-amino-2-oxoacetyl)piperidin-3-ylamino)-1H-pyrazolo[3,4-b]pyridin-4-yloxy)-N-(4-methylpyridin-2-yl)benzamide], for which the IC50 was less than 100 nM on Btk (read-out: Btk (IC50)), greater than 10000 nM against JAK3, 100 to 1000 nM on EGFR and 100 to 1000 nM on Lck (read-out: LCK (IC50)).
For the compound `CN1CCC(C(=O)N2CC[C@@H](Nc3n[nH]c4nccc(Oc5ccc(C(=O)Nc6cc(C(F)(F)F)ccn6)cc5)c34)C2)CC1` [compound 199, 4-[(3-{[1-(1-methylpiperidin-4-carbonyl)pyrrolidin-3-yl]amino}-1H-pyrazolo[3,4-b]pyridin-4-yl)oxy]-N-[4-(trifluoromethyl)pyridin-2-yl]benzamide], the IC50 at Btk (read-out: Btk (IC50)) was less than 100 nM; against JAK3 it was greater than 10000 nM; against EGFR it was 100 to 1000 nM; on Lck (read-out: LCK (IC50)), 100 to 1000 nM.
Turning to `Cc1cccc2nc(-c3ccc(Oc4ccnc5[nH]nc(N[C@@H]6CCCN(C(=O)C7CC7)C6)c45)cc3)oc12` [compound 220, (3R)-1-cyclopropanecarbonyl-N-{4-[4-(7-methyl-1,3-benzoxazol-2-yl)phenoxy]-1H-pyrazolo[3,4-b]pyridin-3-yl}piperidin-3-amine], the IC50 on Btk (read-out: Btk (IC50)) is 1000 to 10000 nM; at JAK3 it was greater than 10000 nM; against EGFR, greater than 10000 nM; at Lck (read-out: LCK (IC50)), greater than 10000 nM.
On to `CN(C)CCCC(=O)N1CCC[C@@H](Nc2n[nH]c3nccc(Oc4ccc(C(=O)Nc5cc(C(F)(F)F)ccn5)cc4)c23)C1` [compound 161], for which the IC50 on Btk (read-out: Btk (IC50)) is less than 100 nM; against JAK3, greater than 10000 nM; at EGFR, 100 to 1000 nM; on Lck (read-out: LCK (IC50)), less than 100 nM.
Consider `Cc1cnc(NC(=O)c2ccc(Oc3ccnc4[nH]nc(N[C@@H]5CCCN(C(=O)/C=C/CN(C)C)C5)c34)cc2)s1` [compound 198, 4-[(3-{[(3R)-1-[(2E)-4-(dimethylamino)but-2-enoyl]piperidin-3-yl]amino}-1H-pyrazolo[3,4-b]pyridin-4-yl)oxy]-N-(5-methyl-1,3-thiazol-2-yl)benzamide], for which the IC50 on Btk (read-out: Btk (IC50)) is less than 100 nM; against JAK3, greater than 10000 nM; at EGFR, 1000 to 10000 nM; on Lck (read-out: LCK (IC50)) it was 100 to 1000 nM.
